Results published in patent US20120107916A1, “METHODS AND COMPOSITIONS FOR AFFECTING THE DIFFERENTIATION OF CLOSTRIDIA IN CULTURE” (priority 2009, published 2012).

Tests used:
[1] = system: C. beijerinckii NCIMB 8052; experiment: Growth (optical density at 600 nm) of sequential batch cultures; assay type: cell-based, Clostridium beijerinckii
Method: (§1) Bacterial strains and media. Clostridium acetobutylicum ATCC 824 and C. beijerinckii NCIMB 8052 are available from several commercial microbial culture collections including the American Type Culture Collection (ATCC), Manassas, Va., USA. The strains were grown at 30° C. or 37° C. in YE broth, which contained, per liter: 5.0 g yeast extract, 2.5 g casamino acids, 1.0 g L-asparagine, 0.5 g cysteine.HCl, 56 mg K2HPO4, 56 mg KH2PO4, 82 mg anhydrous MgSO4, 8 mg FeSO4.H2O, 6 mg MnSO4.H2O and 10 g glucose. Alternatively, strains were grown in YEPG broth, which was identical to YE expect that K2HPO4 and KH2PO4 were increased to 145 mg/L each and glucose was increased to 60 g/L. The pH of the media was adjusted to 7.2 using 45% KOH prior to sterilization by autoclaving. Media were solidified by addition of 1.5% Bacteriological Agar, Actimedia Manufacturers, Inc., Lansing, Mich. All cultures were grown in anaerobic conditions using the AnaeroPack System, Mitsubishi Gas Chemical Co., Inc., Japan, and GasPak EZ Gas Generating Sachets, Becton, Dickinson and Co., Sparks, Md. Spore stocks were kept at room temperature on agar-solidified media and were activated by suspending spores in 0.5 mL to 1.0 mL of medium followed by heating for 10 min at 80° C. before inoculation into growth medium.
(§2) Growth and pH measurements. Growth of bacterial cultures was measured spectrophotometrically using optical density at 600 nm and pH of cell-free culture supernatants was measured using a hand-held Shindengen ISFET pH Meter KS501, Shendengen Electric Manufacturing Co., Ltd., Bannockburn, Ill.
(§3) Effect of peptide SEQ ID NO:145 addition on sequential batch cultures of C. beijerinckii NCIMB 8052 grown at 30° C. Spores of C. beijerinckii NCIMB 8052 were germinated and grown overnight at 30° C. under anaerobic conditions in YEPG medium. After about 24 h of growth, […] of the culture was transferred (transfer 1) to each of four flasks that contained 10 mL of YEPG and either had no treatment or were treated with peptide SEQ ID NO:145 (see Table 8) at 1 nM, 10 nM or 50 nM. Thereafter, 75 μL of each culture was transferred, at the same time, every 24-48 h to 10 mL of fresh YEPG that contained the same peptide treatment or no treatment. Each culture was stopped after 96 hours of incubation and optical density, pH and ceric ion reactive chemicals were measured. Sequential batch culturing was continued through 6 transfers at which point all cultures appeared to be growing to the same extent (Table 12 and FIG. 4).
(§4) Effect of peptide SEQ ID NO:145 addition on sequential batch cultures of C. beijerinckii NCIMB 8052 grown at 37° C. Spores of C. beijerinckii NCIMB 8052 were germinated and grown overnight at 37° C. under anaerobic conditions in YEPG medium that either contained 50 nM of peptide SEQ ID NO:145 or no added peptide. After about 24 h of growth, 10 μL of the untreated culture was transferred (transfer 1) to each of two flasks that contained 10 mL of YEPG with either no treatment or with 50 nM peptide SEQ ID NO:145. At the same time, 10 μL of the culture that was germinated in the presence of peptide SEQ ID NO:145 was also transferred to 10 mL of YEPG that contained 50 nM of peptide SEQ ID NO:145. Thereafter, 10 μL of each culture was transferred, at the same time, every 24-48 h to 10 mL of fresh YEPG that contained the same peptide treatment or no treatment. Each culture was stopped after 72 hours of incubation and optical density, pH and ceric ion reactive chemicals were measured. Addition of peptide SEQ ID NO:145 appeared to have no effect on endpoint measurements of the growth of C. beijerinckii NCIMB 8052 after germination or during sequential transfers of cultures at 37° C. (Table 18 and FIG. 10). All three cultures stopped growing at the second transfer.

[2] = system: C. beijerinckii NCIMB 8052; experiment: Final pH of cell-free culture supernatants of sequential batch cultures; assay type: cell-based, Clostridium beijerinckii
Method: as §1, §2, §3, §4

[3] = 1 nM peptide, transfer 1, 96 h, 30° C.
[4] = 1 nM peptide, transfer 2, 96 h, 30° C.
[5] = 1 nM peptide, transfer 3, 96 h, 30° C.
[6] = 1 nM peptide, transfer 4, 96 h, 30° C.
[7] = 1 nM peptide, transfer 5, 96 h, 30° C.
[8] = 1 nM peptide, transfer 6, 96 h, 30° C.
[9] = 10 nM peptide, transfer 1, 96 h, 30° C.
[10] = 10 nM peptide, transfer 2, 96 h, 30° C.
[11] = 10 nM peptide, transfer 3, 96 h, 30° C.
[12] = 10 nM peptide, transfer 4, 96 h, 30° C.
[13] = 10 nM peptide, transfer 5, 96 h, 30° C.
[14] = 10 nM peptide, transfer 6, 96 h, 30° C.
[15] = 50 nM peptide added after germination, transfer 1, 72 h, 37° C.
[16] = 50 nM peptide added after germination, transfer 2, 72 h, 37° C.
[17] = 50 nM peptide, transfer 1, 96 h, 30° C.
[18] = 50 nM peptide, transfer 2, 96 h, 30° C.
[19] = 50 nM peptide, transfer 3, 96 h, 30° C.
[20] = 50 nM peptide, transfer 4, 96 h, 30° C.
[21] = 50 nM peptide, transfer 5, 96 h, 30° C.
[22] = 50 nM peptide, transfer 6, 96 h, 30° C.
[23] = 50-50: germinated and transferred in 50 nM peptide, transfer 1, 72 h, 37° C.
[24] = 50-50: germinated and transferred in 50 nM peptide, transfer 2, 72 h, 37° C.
[25] = 50-50: spores germinated in 50 nM peptide, transfer 0 (germinated culture), 72 h, 37° C.

**Q.** What does the source list for “IRLIT (Derived from Clostridium beijerinckii SEQ ID NO: 141) [Peptide SEQ ID NO:145, pentapeptide from C. beijerinckii NCIMB 8052 locus Cbei_1065; chemically synthesized putative autoinducing peptide]”?
**A.** Optical density at 600 nm of culture broths [1, 3]: 2.086; Optical density at 600 nm of culture broths [1, 4]: 2.086; Optical density at 600 nm of culture broths [1, 5]: 2.106; Optical density at 600 nm of culture broths [1, 6]: 2.115; Optical density at 600 nm of culture broths [1, 7]: 2.090; Optical density at 600 nm of culture broths [1, 8]: 2.075; Optical density at 600 nm of culture broths [1, 9]: 2.080; Optical density at 600 nm of culture broths [1, 10]: 2.093; Optical density at 600 nm of culture broths [1, 11]: 2.078; Optical density at 600 nm of culture broths [1, 12]: 2.108; Optical density at 600 nm of culture broths [1, 13]: 2.069; Optical density at 600 nm of culture broths [1, 14]: 2.062; Optical density at 600 nm of culture broths [1, 15]: 1.313; Optical density at 600 nm of culture broths [1, 16]: 0.011; Effect on endpoint measurements of growth after germination or during sequential transfers ([1]; 50 nM peptide, 37° C.): no effect; Effect on germination and growth (visual observations through the course of growth) ([1]; 50 nM peptide, 37° C.): repressive effect; Optical density at 600 nm of culture broths [1, 17]: 2.102; Optical density at 600 nm of culture broths [1, 18]: 2.023; Optical density at 600 nm of culture broths [1, 19]: 1.936; Optical density at 600 nm of culture broths [1, 20]: 2.061; Optical density at 600 nm of culture broths [1, 21]: 2.120; Optical density at 600 nm of culture broths [1, 22]: 2.046; Growth of treated cultures during incubation (data not shown) ([1]; 1-50 nM peptide, 96 h, 30° C.): slow the growth of the treated cultures during 96 h of incubation in a dose dependent manner; Optical density at 600 nm of culture broths [1, 23]: 1.420; Optical density at 600 nm of culture broths [1, 24]: 0.011; Optical density at 600 nm of culture broths [1, 25]: 1.158; Number of times that cultures could be transferred in comparison with an untreated culture ([1]; through six culture transfers, 30° C.): did not affect; Final pH of culture broths [2, 3]: 5.3; Final pH of culture broths [2, 4]: 5.3; Final pH of culture broths [2, 5]: 5.1; Final pH of culture broths [2, 6]: 5.3; Final pH of culture broths [2, 7]: 5.3; Final pH of culture broths [2, 8]: 5.3; Final pH of culture broths [2, 9]: 5.3; Final pH of culture broths [2, 10]: 5.3; Final pH of culture broths [2, 11]: 5.0; Final pH of culture broths [2, 12]: 5.3; Final pH of culture broths [2, 13]: 5.4; Final pH of culture broths [2, 14]: 5.3; Final pH of culture broths [2, 15]: 4.1; Final pH of culture broths [2, 16]: 6.5; Effect on endpoint measurements of pH ([2]; 50 nM peptide, 37° C.): no apparent effect; Final pH of culture broths [2, 17]: 5.4; Final pH of culture broths [2, 18]: 5.3; Final pH of culture broths [2, 19]: 5.2; Final pH of culture broths [2, 20]: 5.3; Final pH of culture broths [2, 21]: 5.3; Final pH of culture broths [2, 22]: 5.3; Final pH of culture broths [2, 23]: 4.1; Final pH of culture broths [2, 24]: 6.6; Final pH of culture broths [2, 25]: 4.1
